According to PubChem BioAssay (NCI):
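GI50 is the concentration that inhibits growth by half. At the TGI there is no net growth.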

Experiments:
Test in all cases: inhibition of tumour cell growth, NCI panel, 384-well format
786-0 renal = test system: 786-0 renal
A498 renal = test system: A498 renal
A549 NSCLC = test system: A549 NSCLC
ACHN renal = test system: ACHN renal
BT-549 breast = test system: BT-549 breast
CAKI-1 renal = test system: CAKI-1 renal
COLO 205 colon = test system: COLO 205 colon
EKVX NSCLC = test system: EKVX NSCLC
HCT-116 colon = test system: HCT-116 colon
HCT-15 colon = test system: HCT-15 colon
HL-60(TB) leukemia = test system: HL-60(TB) leukemia
HOP-62 NSCLC = test system: HOP-62 NSCLC
HOP-92 NSCLC = test system: HOP-92 NSCLC
HS 578T breast = test system: HS 578T breast
HT29 colon = test system: HT29 colon
IGROV1 ovarian = test system: IGROV1 ovarian
K-562 leukemia = test system: K-562 leukemia
KM12 colon = test system: KM12 colon
M14 melanoma = test system: M14 melanoma
MALME-3M melanoma = test system: MALME-3M melanoma
MCF7 breast = test system: MCF7 breast
MDA-MB-231 breast = test system: MDA-MB-231 breast
MDA-MB-435 melanoma = test system: MDA-MB-435 melanoma
MDA-MB-468 breast = test system: MDA-MB-468 breast
MOLT-4 leukemia = test system: MOLT-4 leukemia
NCI-H226 lung = test system: NCI-H226 lung
NCI-H322M lung = test system: NCI-H322M lung
NCI-H460 NSCLC = test system: NCI-H460 NSCLC
NCI-H522 lung = test system: NCI-H522 lung
OVCAR-3 ovarian = test system: OVCAR-3 ovarian
OVCAR-4 ovarian = test system: OVCAR-4 ovarian
OVCAR-5 ovarian = test system: OVCAR-5 ovarian
OVCAR-8 ovarian = test system: OVCAR-8 ovarian
PC-3 prostate = test system: PC-3 prostate
RXF 393 renal = test system: RXF 393 renal
SF-268 CNS = test system: SF-268 CNS
SF-295 CNS = test system: SF-295 CNS
SF-539 CNS = test system: SF-539 CNS
SK-MEL-2 melanoma = test system: SK-MEL-2 melanoma
SK-MEL-28 melanoma = test system: SK-MEL-28 melanoma
SK-MEL-5 melanoma = test system: SK-MEL-5 melanoma
SK-OV-3 ovarian = test system: SK-OV-3 ovarian
SN12C renal = test system: SN12C renal
SNB-19 CNS = test system: SNB-19 CNS
SNB-75 CNS = test system: SNB-75 CNS
SR leukemia = test system: SR leukemia
SW-620 colon = test system: SW-620 colon
T-47D breast = test system: T-47D breast
TK-10 renal = test system: TK-10 renal
U251 glioblastoma = test system: U251 glioblastoma
UACC-257 melanoma = test system: UACC-257 melanoma
UACC-62 melanoma = test system: UACC-62 melanoma
UO-31 renal = test system: UO-31 renal

C=CCNC1=C2C[C@@H](C)C[C@H](OC)[C@H](O)[C@@H](C)/C=C(\C)[C@H](OC(N)=O)[C@@H](OC)/C=C\C=C(/C)C(=O)NC(=CC1=O)C2=O
GI50 ([…]-0 renal): 65.7 nM
TGI (786-0 renal): 271 nM
GI50 (A498 renal): 34.5 nM
TGI (A498 renal): 12400 nM
GI50 (A549 NSCLC): < 10 nM
TGI (A549 NSCLC): 10500 nM
GI50 (ACHN renal): 83.2 nM
TGI (ACHN renal): 12000 nM
GI50 (BT-549 breast): < 10 nM
TGI (BT-549 breast): 31.2 nM
GI50 (CAKI-1 renal): 140 nM
TGI (CAKI-1 renal): 14700 nM
GI50 (COLO 205 colon): < 10 nM
TGI (COLO 205 colon): 11 nM
GI50 (EKVX NSCLC): 44.8 nM
TGI (EKVX NSCLC): 419 nM
GI50 (HCT-116 colon): 36.5 nM
TGI (HCT-116 colon): 8320 nM
GI50 (HCT-15 colon): 51.9 nM
TGI (HCT-15 colon): 5340 nM
GI50 (HL-60(TB) leukemia): 31 nM
TGI (HL-60(TB) leukemia): 169 nM
GI50 (HOP-62 NSCLC): 20.4 nM
TGI (HOP-62 NSCLC): 1750 nM
GI50 (HOP-92 NSCLC): 716 nM
TGI (HOP-92 NSCLC): 3140 nM
GI50 (HS 578T breast): < 10 nM
TGI (HS 578T breast): 20.2 nM
GI50 (HT29 colon): < 10 nM
TGI (HT29 colon): 10700 nM
GI50 (IGROV1 ovarian): 27.1 nM
TGI (IGROV1 ovarian): 281 nM
GI50 (K-562 leukemia): 27.6 nM
TGI (K-562 leukemia): 10300 nM
GI50 (KM12 colon): < 10 nM
TGI (KM12 colon): 11.5 nM
GI50 (M14 melanoma): < 10 nM
TGI (M14 melanoma): 11400 nM
GI50 (MALME-3M melanoma): < 10 nM
TGI (MALME-3M melanoma): 282 nM
GI50 (MCF7 breast): < 10 nM
TGI (MCF7 breast): 41.6 nM
GI50 (MDA-MB-231 breast): 422 nM
TGI (MDA-MB-231 breast): 2240 nM
GI50 (MDA-MB-435 melanoma): 34 nM
TGI (MDA-MB-435 melanoma): 13700 nM
GI50 (MDA-MB-468 breast): 180 nM
TGI (MDA-MB-468 breast): 733 nM
GI50 (MOLT-4 leukemia): 145 nM
TGI (MOLT-4 leukemia): 336 nM
GI50 (NCI-H226 lung): 33.3 nM
TGI (NCI-H226 lung): 440 nM
GI50 (NCI-H322M lung): < 10 nM
TGI (NCI-H322M lung): 10100 nM
GI50 (NCI-H460 NSCLC): < 10 nM
TGI (NCI-H460 NSCLC): 1610 nM
GI50 (NCI-H522 lung): 13.6 nM
TGI (NCI-H522 lung): 47.4 nM
GI50 (OVCAR-3 ovarian): 37.1 nM
TGI (OVCAR-3 ovarian): 447 nM
GI50 (OVCAR-4 ovarian): 158 nM
TGI (OVCAR-4 ovarian): 12000 nM
GI50 (OVCAR-5 ovarian): 59.2 nM
TGI (OVCAR-5 ovarian): 12600 nM
GI50 (OVCAR-8 ovarian): 42.2 nM
TGI (OVCAR-8 ovarian): 205 nM
GI50 (PC-3 prostate): 22.9 nM
TGI (PC-3 prostate): 124 nM
GI50 (RXF 393 renal): 16.5 nM
TGI (RXF 393 renal): 65.6 nM
GI50 (SF-268 CNS): 27.4 nM
TGI (SF-268 CNS): 11100 nM
GI50 (SF-295 CNS): 21.9 nM
TGI (SF-295 CNS): 121 nM
GI50 (SF-539 CNS): 13.9 nM
TGI (SF-539 CNS): 36.1 nM
GI50 (SK-MEL-2 melanoma): < 10 nM
TGI (SK-MEL-2 melanoma): 112 nM
GI50 (SK-MEL-28 melanoma): 29.5 nM
TGI (SK-MEL-28 melanoma): 15200 nM
GI50 (SK-MEL-5 melanoma): < 10 nM
TGI (SK-MEL-5 melanoma): 2900 nM
GI50 (SK-OV-3 ovarian): 14.8 nM
TGI (SK-OV-3 ovarian): 99.5 nM
GI50 (SN12C renal): 17.2 nM
TGI (SN12C renal): 255 nM
GI50 (SNB-19 CNS): 50.8 nM
TGI (SNB-19 CNS): 10800 nM
GI50 (SNB-75 CNS): 13.8 nM
TGI (SNB-75 CNS): 73.8 nM
GI50 (SR leukemia): 11 nM
TGI (SR leukemia): 25.3 nM
GI50 (SW-620 colon): 16 nM
TGI (SW-620 colon): 10900 nM
GI50 (T-47D breast): 838 nM
TGI (T-47D breast): 6160 nM
GI50 (TK-10 renal): 35.7 nM
TGI (TK-10 renal): 13500 nM
GI50 (U251 glioblastoma): 26.2 nM
TGI (U251 glioblastoma): 167 nM
GI50 (UACC-257 melanoma): 27.4 nM
TGI (UACC-257 melanoma): 1350 nM
GI50 (UACC-62 melanoma): 11.8 nM
TGI (UACC-62 melanoma): 53.5 nM
GI50 (UO-31 renal): 340 nM
TGI (UO-31 renal): 12000 nM
